Residues, ends and D or L forms follow the SMILES beside them.

Assay [1] addresses T1, binding of p85 to HGF/SF receptor (Bos taurus, UniProt P23727).
T1 construct: made in house; host or cells: Sf9 insect cells (baculovirus), for both p85 and the receptor
Put plainly: Competition of phosphopeptides with p85 for association with immobilized recombinant HGF/SF receptor (in vitro kinase assay readout). Also noted: species or system human. The procedure:
FIG. 1. Inhibition of binding of p85 to HGF/SF receptor by tyrosine-phosphorylated peptides. Recombinant HGF/SF receptor was purified by immunoprecipitation from baculovirus-infected Sf9 cells using a rabbit polyclonal antiserum and phosphorylated with cold ATP. Lysates of Sf9 cells expressing p85 were pre-incubated with each of the phosphopeptides (10 μM). The lysates were then allowed to associate with immobilized recombinant HGF/SF receptors. Following association the complex was washed and receptor-bound p85 was detected by an in vitro kinase assay, as described in Materials and Methods of Example 4. The phosphopeptides are identified by the number of the amino terminal tyrosine.
FIG. 2. Inhibition of binding of p85 to HGF/SF receptor with different concentrations of tyrosine-phosphorylated peptides. The phosphopeptides which efficiently out-competed p85 binding to the HGF/SF receptor (FIG. 1) were used at increasing concentrations (10 nM, 100 nM, 1 μM from left to right) to define their relative affinities for p85. Conditions of the experiment were as in FIG. 1. Phosphopeptide 1365 was used as a negative control for p85 interaction.
In vitro association experiments. Sf9 cells expressing the recombinant HGF/SF receptor (approximately 4×10^6 cells/point) were lysed 36 hours after infection in buffer A (10 mM Tris-HCl buffer pH 7.5, 10% glycerol, 1% Triton X-100, 150 mM NaCl, 5 mM EDTA), supplemented with 0.2 mM phenyl-methylsulfonyl fluoride, 1 μg/ml leupeptin, 0.1 TIU/ml aprotinin and 1 μg/ml pepstatin. Lysates were clarified at 15,000×g at 4° C. for 15 minutes and the supernatants immunoprecipitated after 2 hours incubation with anti-Met antibodies coupled to Protein A-Sepharose. Immunocomplexes were washed three times with buffer A, once with buffer B (10 mM Tris-HCl pH 7.4, 100 mM NaCl, 1 mM EDTA) and once with buffer C (25 mM 4-(2-hydroxyethyl)-1-piperazine-ethanesulfonic acid (HEPES) buffer pH 7.2, 100 mM NaCl, 5 mM MgCl2). Samples were pre-phosphorylated by incubation for 15 minutes at 25° C. in buffer C with 10 μM unlabelled ATP and then washed three times with cold buffer A supplemented with 1 mM sodium ortho-vanadate. Association between the immobilized receptor and the baculovirus-expressed p85 was carried out as previously described (Bardelli, A., et al., Oncogene 7: 1973-1978 (1992)). For the association experiments with the PI 3-kinase holoenzyme three days serum-starved A549 cells (approx. 2×10^6 cells/point) were used as a source of PI 3-kinase. A549 cells were Dounce-homogenized in MOPS buffer (20 mM 3-(N-morpholino)propanesulfonic acid) (pH 7.5), 1 mM MgCl2, 0.1 mM EDTA, 200 mM sucrose, 1 mM sodium ortho-vanadate), supplemented with 0.2 mM phenylmethylsulfonyl fluoride, 1 μg/ml leupeptin, 0.1 TIU/ml aprotinin and 1 μg/ml pepstatin. Homogenates were centrifuged at 100,000×g for 20 minutes at 4° C. When checking for the ability of phosphopeptides to block the association with the receptor, cell lysates were pre-incubated with the phosphopeptides for 1 hour at 4° C. prior to incubation with the immobilized recombinant HGF/SF receptor. Following association, immunocomplexes were washed three times with buffer A, twice with buffer D (0.5M LiCl, 100 mM Tris-HCl pH 7.6), and twice with buffer B.
The presence of the p85 subunit of the PI 3-kinase in the receptor immunoprecipitate was determined by: i) labelling of the receptor and associated proteins with [γ-^32 P]ATP by in vitro kinase assay; ii) Western immunoblotting; iii) PI 3-kinase activity assay.
In vitro kinase assay. Receptor-associated proteins were labelled in 20 μl of buffer C, in the presence of 10 μCi [γ-^32 P]ATP (specific activity 7,000 Ci/Mm; Amersham) at 25° C. for 15 minutes. The reaction was stopped by adding 1 ml of ice-cold Buffer A without protease inhibitors. Samples were washed three times with cold buffer A. The labelled immunocomplexes were eluted from Protein A-Sepharose in boiling Laemmli buffer. […]

The subject of assay [2] is binding of PI 3-kinase holoenzyme to HGF/SF receptor. Put plainly: Competition of phosphopeptides with PI 3-kinase holoenzyme (A549 cytosolic extracts) for association with recombinant HGF/SF receptor (PI 3-kinase activity assay). Also on record: species or system human. The settings on record: phosphopeptide 10 μM; A549 cytosolic extracts; FIG. 3. The procedure: FIG. 3. Inhibition of binding of PI 3-kinase holoenzyme to HGF/SF receptor by tyrosine-phosphorylated peptides. The phosphopeptides which efficiently out-competed p85 (FIG. 1) were assayed for the ability to interfere with binding of the PI 3-kinase holoenzyme to the HGF/SF receptor. Cytosolic extracts from three days-starved A549 cells were pre-incubated with each of the phosphopeptides (10 μM) prior to incubation with the immobilized recombinant HGF/SF receptor. The presence of receptor-associated PI 3-kinase in the immunocomplexes was determined by PI 3-kinase activity assay, as described in Materials and Methods of Example 4. The position of the phosphatidylinositol-3-phosphate (PIP) product of the PI 3-kinase reaction is indicated.
In vitro association experiments. Sf9 cells expressing the recombinant HGF/SF receptor (approximately 4×10^6 cells/point) were lysed 36 hours after infection in buffer A (10 mM Tris-HCl buffer pH 7.5, 10% glycerol, 1% Triton X-100, 150 mM NaCl, 5 mM EDTA), supplemented with 0.2 mM phenyl-methylsulfonyl fluoride, 1 μg/ml leupeptin, 0.1 TIU/ml aprotinin and 1 μg/ml pepstatin. […]
The presence of the p85 subunit of the PI 3-kinase in the receptor immunoprecipitate was determined by: i) labelling of the receptor and associated proteins with [γ-^32 P]ATP by in vitro kinase assay; ii) Western immunoblotting; iii) PI 3-kinase activity assay. […]

T1 sequence (P23727 whole entry): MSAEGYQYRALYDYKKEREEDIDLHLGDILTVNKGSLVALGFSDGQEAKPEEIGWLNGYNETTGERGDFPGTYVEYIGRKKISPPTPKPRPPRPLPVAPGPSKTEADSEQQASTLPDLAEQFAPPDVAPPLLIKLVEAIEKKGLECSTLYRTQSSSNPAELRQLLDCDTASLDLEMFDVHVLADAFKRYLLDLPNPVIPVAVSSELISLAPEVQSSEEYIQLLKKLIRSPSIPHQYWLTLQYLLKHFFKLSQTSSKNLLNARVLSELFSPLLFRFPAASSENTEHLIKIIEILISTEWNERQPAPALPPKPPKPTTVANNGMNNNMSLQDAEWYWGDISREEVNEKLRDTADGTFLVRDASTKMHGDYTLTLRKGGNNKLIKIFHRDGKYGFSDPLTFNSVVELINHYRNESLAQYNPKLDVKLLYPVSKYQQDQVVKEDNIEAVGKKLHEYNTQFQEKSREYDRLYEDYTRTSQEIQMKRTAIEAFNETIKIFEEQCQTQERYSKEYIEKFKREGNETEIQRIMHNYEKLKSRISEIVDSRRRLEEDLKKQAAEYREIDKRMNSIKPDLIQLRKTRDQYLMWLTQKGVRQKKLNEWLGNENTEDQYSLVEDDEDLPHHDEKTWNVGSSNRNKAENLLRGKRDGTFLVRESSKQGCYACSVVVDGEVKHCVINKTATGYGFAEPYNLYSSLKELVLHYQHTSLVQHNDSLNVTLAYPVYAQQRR

Turning to `CC(C)[C@H](NC(=O)[C@H](CC(N)=O)NC(=O)[C@@H](NC(=O)[C@H](Cc1ccc(OP(=O)(O)O)cc1)NC(=O)[C@@H](NC(=O)[C@H](C)NC(=O)[C@H](CC(N)=O)NC(=O)[C@@H](NC(=O)[C@H](Cc1c[nH]cn1)NC(=O)[C@@H](NC(=O)[C@@H](N)Cc1ccc(OP(=O)(O)O)cc1)C(C)C)C(C)C)[C@@H](C)O)C(C)C)C(=O)N[C@@H](CCCCN)C(=O)O` [H-Tyr*-Val-His-Val-Asn-Ala-Thr-Tyr*-Val-Asn-Val-Lys-OH] (HELM PEPTIDE1{[N[C@@H](Cc1ccc(OP(=O)(O)O)cc1)C(=O)[*:2]].V.H.V.N.A.T.[O=C([C@H](Cc1ccc(OP(=O)(O)O)cc1)N[*:1])[*:2]].V.N.V.K}$$$$V2.0), the “Inhibition of binding of p85 to HGF/SF receptor” value in assay [1] (phosphopeptide 10 μM, p85 from Sf9 lysates, FIG. 1) was “completely prevented p85 binding”. Also, the “Efficiency at outcompeting p85 (relative affinity for p85)” value in assay [1] (phosphopeptides at 10 nM, 100 nM, 1 μM, FIG. 2, rank order SEQ. ID NO: 19, then 22, 20, 18) is reported as “comparable to H-Tyr*-Val-Asn-Val-Lys-Cys-Val-Ala-OH”. The “Interference with binding of PI 3-kinase holoenzyme to HGF/SF receptor” value in assay [2] is given as “more efficient at displacing the PI 3-kinase holoenzyme from the HGF/SF receptor than those including just one of these residues”.

The values above are taken from patent US5912183A, “Peptide inhibitors of mitogenesis and motogenesis” (Pharmacia & Upjohn S.p.A., priority 1993, dated 1999).
